Assay results taken from PubChem BioAssay (NCI).
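96-well plates; 48 h exposure; 5 concentrations. Endpoints by linear interpolation between flanking doses. Not reached: highest tested concentration assigned. TGI denotes the concentration required for complete inhibition of growth.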

Assays:
Experiment in all cases: NCI anticancer screen, dose series, 48 h
NCI-H460 lung = tested on: NCI-H460 lung
PC-3 prostate = tested on: PC-3 prostate
UO-31 renal = tested on: UO-31 renal
SK-MEL-28 melanoma = tested on: SK-MEL-28 melanoma
CAKI-1 renal = tested on: CAKI-1 renal
HT29 colon = tested on: HT29 colon
SK-MEL-2 melanoma = tested on: SK-MEL-2 melanoma
SF-539 CNS = tested on: SF-539 CNS
K-562 leukemia = tested on: K-562 leukemia
DU-145 prostate = tested on: DU-145 prostate
COLO 205 colon = tested on: COLO 205 colon
MOLT-4 leukemia = tested on: MOLT-4 leukemia
OVCAR-8 ovarian = tested on: OVCAR-8 ovarian
NCI-H226 lung = tested on: NCI-H226 lung
OVCAR-3 ovarian = tested on: OVCAR-3 ovarian
HCC-2998 colon = tested on: HCC-2998 colon
SK-OV-3 ovarian = tested on: SK-OV-3 ovarian
RXF 393 renal = tested on: RXF 393 renal
KM12 colon = tested on: KM12 colon
SNB-19 CNS = tested on: SNB-19 CNS
NCI-H23 lung = tested on: NCI-H23 lung
UACC-62 melanoma = tested on: UACC-62 melanoma
A549 NSCLC = tested on: A549 NSCLC
786-0 renal = tested on: 786-0 renal
SW-620 colon = tested on: SW-620 colon
U251 CNS = tested on: U251 CNS
HCT-15 colon = tested on: HCT-15 colon
IGROV1 ovarian = tested on: IGROV1 ovarian
SNB-75 CNS = tested on: SNB-75 CNS
SF-268 CNS = tested on: SF-268 CNS
RPMI-8226 leukemia = tested on: RPMI-8226 leukemia
OVCAR-5 ovarian = tested on: OVCAR-5 ovarian
HOP-62 NSCLC = tested on: HOP-62 NSCLC
NCI/ADR-RES ovarian = tested on: NCI/ADR-RES ovarian
HS 578T breast = tested on: HS 578T breast
T-47D breast = tested on: T-47D breast
A498 renal = tested on: A498 renal
MDA-MB-435 = tested on: MDA-MB-435
EKVX NSCLC = tested on: EKVX NSCLC
SN12C renal = tested on: SN12C renal
M14 melanoma = tested on: M14 melanoma
MCF7 breast = tested on: MCF7 breast
HL-60(TB) leukemia = tested on: HL-60(TB) leukemia
HCT-116 colon = tested on: HCT-116 colon
CCRF-CEM leukemia = tested on: CCRF-CEM leukemia
SR leukemia = tested on: SR leukemia
SK-MEL-5 melanoma = tested on: SK-MEL-5 melanoma
BT-549 breast = tested on: BT-549 breast
SF-295 CNS = tested on: SF-295 CNS
NCI-H522 lung = tested on: NCI-H522 lung
OVCAR-4 ovarian = tested on: OVCAR-4 ovarian
MDA-MB-231 breast = tested on: MDA-MB-231 breast
TK-10 renal = tested on: TK-10 renal
UACC-257 melanoma = tested on: UACC-257 melanoma
ACHN renal = tested on: ACHN renal
HOP-92 NSCLC = tested on: HOP-92 NSCLC

Measured: TGI

CC(C)(O)[C@@H]1CC[C@](C)(C2[C@@H](O)C[C@@]3(C)C4C[C@H](OC5OCC(O)C(O)C5O)[C@H]5C(C)(C)[C@@H](OC6OCC(O)C(O)C6OC6OCC(O)C(O)C6O)CC[C@@]56C[C@@]46CC[C@]23C)O1 (stereo partly drawn)
not listed: TK-10 renal | UACC-257 melanoma | ACHN renal | HOP-92 NSCLC
> 100 µM: all other assays above

O=C(Cc1ccccc1CCO)NCCc1ccccc1
> 100 µM: all assays above
